{"source": "patent US9662371B2", "about": "“Treatment of autism and similar disorders” (Neuropharmacology Services, LLC, priority 2002, dated 2017)", "key": {"[1]": {"system": "adult patients diagnosed with autism or Asperger's disorder", "assay": "Side effects and vital signs (blood pressure, pulse, oral temperature) during the oxytocin infusion challenge", "type": "in vivo, human", "description": "(§1) All subjects were admitted into the General Clinical Research Center on the evening prior to each challenge. Following an overnight fast, the subject was awakened at 8:00 AM and an indwelling intravenous catheter inserted. At 8:30 AM vital signs were taken, and these continued to be monitored every half-hour. At 9:00 AM, 6 cc of blood were drawn and the oxytocin/placebo infusion was administered in a randomized double-blind fashion. The initial vial of Pitocin® (10 u/mL) combined aseptically with a 1.0 L bag of normal saline was first given at a rate of 10 mL/hr which is equivalent to a dose rate of 0.1 units/hour. The infusion was initiated at a low rate to minimize potential side effects, and the rate gradually titrated up. Specifically, the dose rate was titrated every 15 minutes by 25 mL/hour in the first hour, 50 mL/hour in the second hour, 100 mL/hour in the third hour, and held constant at the maximum rate of 700 mL/hr during the fourth hour. This created a range of dosing from 0.1 U/hour to 7 U/hour. See below:\n(§2) Staff members were given specific instructions to discontinue increasing the rate of infusion if the patient experienced significant side effects. In order to assess possible cardiovascular effects, blood pressure and pulse were recorded every half hour. Oral temperature was recorded every hour. All fifteen subjects returned in 2-3 weeks for an identical challenge administered with the other infusion substance.\nA repeated measure analysis of variance (ANOVA) was conducted looking at the two infusions (oxytocin vs. placebo) over time (0, 60, 120, 180 and 240 minutes). A logarithmic transformation was done for the repetitive behavior ratings because the data were not normally distributed. Baseline differences on the oxytocin vs. placebo days were examined using paired sample t-tests. Differences in response between patients with autism and patients with Asperger's disorder were examined using independent sample t-tests. […]"}, "[2]": {"system": "adult patients diagnosed with autism or Asperger's disorder", "assay": "Oxytocin vs placebo 4-hour intravenous infusion challenge, rating of six repetitive behaviors", "type": "in vivo, human", "text": "To evaluate the role of oxytocin in treating autism spectrum disorders, fifteen adult patients (mean age=32.9 years, range=19.4-55.6) (14 male, 1 female) diagnosed with autism (N=6) or Asperger's disorder (N=9) received oxytocin and placebo challenges during visits separated by 2-3 weeks to the General Clinical Research Center of the Department of Psychiatry, Seaver Autism Research Center at the Mount Sinai School of Medicine (New York, N.Y.).\nPatients and their guardians signed written informed consent agreements, and the study was carried out in accordance with the Declaration of Helsinki as adopted and promulgated by the National Institutes of Health. All patents were medically healthy, without a current or past history of schizophrenia, psychotic disorders, substance abuse, other Axis I mental disorders, or seizure disorders. Patients were of average intelligence, with a mean IQ (±SD) of 90.33 (±9.90) (range=74-110). Nine patients were medication free for greater than one year prior to the study; three patents were medication free for greater than six weeks prior to the study (one was previously on fluoxetine, one on sertraline and one on bupropion); and the remaining three patents were medication free for a minimum of two weeks prior to and throughout the study (one was previously on fluvoxamine and risperidone, one on sertraline and one on clonazepam).\nEach individual subject underwent two identical challenge days in which they received a continuous infusion over 4 hours of synthetic oxytocin (Pitocin®) or placebo.\nas §1\nThe combined solution, rotated in an infusion bottle to insure thorough mixing, was added to the system by a constant infusion pump to accurately control the rate of infusion.\nas §2\nSeverity of repetitive autistic behaviors was evaluated using a method developed during past research with the autistic population. Six behaviors were assessed: need to know, repeating, ordering, need to tell/ask, self-injury, and touching. The ratings were completed at baseline (O), 60, 120, 180, and 240 minutes and reported. The frequency of each of the six repetitive behaviors was recorded using a four point ordinal scale with the following values: 0=never, 1=rarely, 2=sometimes, 3=constantly. These ratings were done following a 15 to 20 minute interview during which several other measures were administered and the rater had the opportunity to observe the patient's behavior in this domain. […]"}, "[3]": {"settings": "baseline (0) to endpoint (240 minutes), 15 patients, FIG. 2"}}}
{"smiles": "CC[C@H](C)[C@@H]1NC(=O)[C@H](Cc2ccc(O)cc2)NC(=O)[C@@H](N)CSSC[C@@H](C(=O)N2CCC[C@H]2C(=O)N[C@@H](CC(C)C)C(=O)NCC(N)=O)NC(=O)[C@H](CC(N)=O)NC(=O)[C@H](CCC(N)=O)NC1=O", "note": "[oxytocin]", "values": [{"measurement": "effects of infusion on blood pressure, pulse, or temperature", "setting": "[1]; 4-hour infusion, 0.1 U/hour to 7 U/hour", "result": "no significant effects"}, {"measurement": "side effects", "setting": "[1]; 4-hour infusion, drowsiness, anxiety, depression, headache, tingling, backache, trembling, restlessness, stomach cramps, enuresis", "result": "mild"}, {"measurement": "relationship between presence or number of side effects and behavioral response", "setting": "[1]; chi square analysis", "result": "no relationship"}, {"measurement": "individual dimensions of repetitive behavior, oxytocin versus placebo infusions over time", "setting": "[2]; ANOVA of individual items, at p<0.05", "result": "no significant differences"}, {"measurement": "main effect for drug on repetitive behaviors", "setting": "[2]; ANOVA, F=1.835, df=1, 13, p=0.199", "result": "no significant main effect"}, {"measurement": "total number of repetitive behaviors observed following administration", "setting": "[2]; autistic study group, FIG. 1 (dashed line)", "result": "appears to decrease"}, {"measurement": "patients with an increase in repetitive behaviors", "setting": "[2]; [3]", "result": 1, "unit": "patient"}, {"measurement": "patients with no change in repetitive behaviors", "setting": "[2]; [3]", "result": 1, "unit": "patient"}, {"measurement": "response of patients with autism versus patients with Asperger's disorder following oxytocin infusion", "setting": "[2]; independent sample t-test, t=0.687, df=13, p=0.504", "result": "did not differ"}, {"measurement": "number of different types of repetitive behavior at endpoint", "setting": "[2]; individuals who responded to oxytocin, endpoint (240 minutes)", "result": "none or one"}, {"measurement": "reduction in repetitive behaviors over time following oxytocin compared to placebo", "setting": "[2]; repeated measures ANOVA, 0-240 min, drug×time interaction F=3.487, df=4, 52, p=0.027, FIG. 1", "result": "significantly greater reduction"}, {"measurement": "touching behavior, oxytocin versus placebo over time", "setting": "[2]; time×drug interaction F=2.444, df=4, 52, p=0.093 (p<0.10)", "result": "directional difference"}, {"measurement": "repeating behavior, oxytocin versus placebo over time", "setting": "[2]; time×drug interaction F=2.70, df=4, 52, p=0.086 (p<0.10)", "result": "directional difference"}]}
